Values of other authors in CN103919735A, “一种盐酸坦索罗辛缓释微丸及其制备方法” (Pharmaceutical (wuhan) Co Ltd, priority 2014, dated 2014).

Test system: BPH patients [BPH患者]
Conditions: for relief of LUTS caused by BPH (in words): large number of studies

SMILES: CCOc1ccccc1OCCN[C@H](C)Cc1ccc(OC)c(S(N)(=O)=O)c1 [盐酸坦索罗辛]
- efficacy in long-term use (in words) (clinical study of 6 years in BPH, stated for α1 receptor blockers): 能够维持稳定的疗效
- time to symptom improvement after treatment (clinical, BPH): 48 h
- relief of LUTS caused by BPH (in words): 均能有效缓解

SMILES: CC(C)(C)NC(=O)[C@H]1CC[C@H]2[C@@H]3CC[C@H]4NC(=O)C=C[C@]4(C)[C@H]3CC[C@]12C [非那雄胺]
- relief of LUTS caused by BPH (in words): 均能有效缓解
